Laboratory results published in the supplement of paper PMC9663587.

Key:
Paclitaxel = compound: CC(=O)O[C@H]1C(=O)[C@@]2(C)[C@H]([C@H](OC(=O)c3ccccc3)[C@]3(O)C[C@H](OC(=O)[C@H](O)[C@@H](NC(=O)c4ccccc4)c4ccccc4)C(C)=C1C3(C)C)[C@]1(OC(C)=O)CO[C@@H]1C[C@@H]2O [Paclitaxel]
BSJ-03-123 [1] = compound: T1, CC(=O)c1c(C)c2cnc(Nc3ccc(N4CCN(CCOCCOCCOCCNC(=O)COc5cccc6c5C(=O)N(C5CCC(=O)NC5=O)C6=O)CC4)cn3)nc2n(C2CCCC2)c1=O [BSJ-03-123]
INK128/MLN0128 = compound: CC(C)n1nc(-c2ccc3oc(N)nc3c2)c2c(N)ncnc21 [INK128/MLN0128]
[2] = compound: CCN1CCN(Cc2ccc(Nc3ncc(F)c(-c4cc(F)c5nc(C)n(C(C)C)c5c4)n3)nc2)CC1
Neratinib/HKI272 [3] = compound: T2, CCOc1cc2ncc(C#N)c(Nc3ccc(OCc4ccccn4)c(Cl)c3)c2cc1NC(=O)/C=C/CN(C)C [Neratinib/HKI272]
Volasertib/BI6727 = compound: CC[C@@H]1C(=O)N(C)c2cnc(Nc3ccc(C(=O)N[C@H]4CC[C@H](N5CCN(CC6CC6)CC5)CC4)cc3OC)nc2N1C(C)C [Volasertib/BI6727]
LEE011/Ribociclib [4] = compound: T3, CN(C)C(=O)c1cc2cnc(Nc3ccc(N4CCNCC4)cn3)nc2n1C1CCCC1 [LEE011/Ribociclib]
THZ531 = compound: CN(C)C/C=C/C(=O)Nc1ccc(C(=O)N2CCC[C@@H](Nc3ncc(Cl)c(-c4c[nH]c5ccccc45)n3)C2)cc1 [THZ531]
ABT-737 = compound: CN(C)CC[C@H](CSc1ccccc1)Nc1ccc(S(=O)(=O)NC(=O)c2ccc(N3CCN(Cc4ccccc4-c4ccc(Cl)cc4)CC3)cc2)cc1[N+](=O)[O-] [ABT-737]
[5] = compound: COc1ccc2c(c1)[C@]1(C[C@H]1c1ccc3c(/C=C/c4ccc(CN5C[C@@H](C)O[C@@H](C)C5)cc4)n[nH]c3c1)C(=O)N2
Pictilisib/GDC0941 = compound: CS(=O)(=O)N1CCN(Cc2cc3nc(-c4cccc5[nH]ncc45)nc(N4CCOCC4)c3s2)CC1 [Pictilisib/GDC0941]
Ceritinib/LDK378 = compound: Cc1cc(Nc2ncc(Cl)c(Nc3ccccc3S(=O)(=O)C(C)C)n2)c(OC(C)C)cc1C1CCNCC1 [Ceritinib/LDK378]
Taselisib/GDC0032 = compound: Cc1nc(-c2cn3c(n2)-c2ccc(-c4cnn(C(C)(C)C(N)=O)c4)cc2OCC3)n(C(C)C)n1 [Taselisib/GDC0032]
Tivantinib/ARQ197 = compound: O=C1NC(=O)[C@@H](c2cn3c4c(cccc24)CCC3)[C@@H]1c1c[nH]c2ccccc12 [Tivantinib/ARQ197]
YKL-5-124 = compound: C=CC(=O)Nc1ccc(C(=O)Nc2[nH]nc3c2CN(C(=O)N[C@H](CN(C)C)c2ccccc2)C3(C)C)cc1 [YKL-5-124]; assay: GR value, 72 h; higher = faster growth (1 = untreated, <0 = killing);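 further: breast cancer and non-malignant breast epithelial lines, nine half-log doses, viable cells counted by Hoechst and LIVE/DEAD dye imaging versus time-zero plates and DMSO controls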
BSJ-03-123 [6] = compound: T1, BSJ-03-123; assay: as above
[7] = compound: CCN1CCN(Cc2ccc(Nc3ncc(F)c(-c4cc(F)c5nc(C)n(C(C)C)c5c4)n3)nc2)CC1; assay: as above
Neratinib/HKI272 [8] = compound: T2, Neratinib/HKI272; assay: as above
[9] = compound: CCc1cnn2c(NCc3ccc[n+]([O-])c3)cc(N3CCCC[C@H]3CCO)nc12; assay: as above
LEE011/Ribociclib [10] = compound: T3, LEE011/Ribociclib; assay: as above
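Wherever GR50, 72 h is given: breast cancer and non-malignant breast epithelial cell lines, Deep Dye Drop or Dye Drop imaging, nine half-log doses, GR normalized to time-zero plates and DMSO-only controls.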

## CAMA1
Paclitaxel
  GR50, 72 h: 0.00227 µM
BSJ-03-123 [1]
  GR50, 72 h: 0.00879 µM
INK128/MLN0128
  GR50, 72 h: 0.00961 µM
[2]
  GR50, 72 h: 0.00786 µM
Neratinib/HKI272 [3]
  GR50, 72 h: 2.83 µM
Volasertib/BI6727
  GR50, 72 h: 0.00782 µM
LEE011/Ribociclib [4]
  GR50, 72 h: 0.0104 µM
THZ531
  GR50, 72 h: 0.139 µM
ABT-737
  GR50, 72 h: > 10 µM
[5]
  GR50, 72 h: 0.00356 µM
Pictilisib/GDC0941
  GR50, 72 h: 1.55 µM
Ceritinib/LDK378
  GR50, 72 h: 1.8 µM
Taselisib/GDC0032
  GR50, 72 h: 1.77 µM
Tivantinib/ARQ197
  GR50, 72 h: 0.276 µM
YKL-5-124; 0.001 µM
  GR value: 0.224 GR
YKL-5-124; 0.003162 µM
  GR value: 0.229 GR
YKL-5-124; 0.01 µM
  GR value: 0.0682 GR
YKL-5-124; 0.03162 µM
  GR value: 0.0899 GR
YKL-5-124; 0.1 µM
  GR value: 0.0659 GR
YKL-5-124; 0.3162 µM
  GR value: -0.0547 GR
YKL-5-124; 1 µM
  GR value: 0.0323 GR
YKL-5-124; 3.162 µM
  GR value: 0.0041 GR
YKL-5-124; 10 µM
  GR value: -0.591 GR
BSJ-03-123 [6]; 0.001 µM
  GR value: 0.778 GR
BSJ-03-123 [6]; 0.003162 µM
  GR value: 0.65 GR
BSJ-03-123 [6]; 0.01 µM
  GR value: 0.463 GR
BSJ-03-123 [6]; 0.03162 µM
  GR value: 0.391 GR
BSJ-03-123 [6]; 0.1 µM
  GR value: 0.264 GR
BSJ-03-123 [6]; 0.3162 µM
  GR value: 0.238 GR
BSJ-03-123 [6]; 1 µM
  GR value: 0.219 GR
BSJ-03-123 [6]; 3.162 µM
  GR value: 0.219 GR
BSJ-03-123 [6]; 10 µM
  GR value: 0.0155 GR
[7]; 0.001 µM
  GR value: 0.866 GR
[7]; 0.003162 µM
  GR value: 0.777 GR
[7]; 0.01 µM
  GR value: 0.44 GR
[7]; 0.03162 µM
  GR value: 0.272 GR
[7]; 0.1 µM
  GR value: 0.257 GR
[7]; 0.3162 µM
  GR value: 0.278 GR
[7]; 1 µM
  GR value: 0.285 GR
[7]; 3.162 µM
  GR value: 0.286 GR
[7]; 10 µM
  GR value: 0.223 GR
Neratinib/HKI272 [8]; 0.0003162 µM
  GR value: 1.08 GR
Neratinib/HKI272 [8]; 0.001 µM
  GR value: 1.01 GR
Neratinib/HKI272 [8]; 0.003162 µM
  GR value: 1.01 GR
Neratinib/HKI272 [8]; 0.01 µM
  GR value: 0.989 GR
Neratinib/HKI272 [8]; 0.03162 µM
  GR value: 1 GR
Neratinib/HKI272 [8]; 0.1 µM
  GR value: 0.993 GR
Neratinib/HKI272 [8]; 0.3162 µM
  GR value: 0.949 GR
Neratinib/HKI272 [8]; 1 µM
  GR value: 0.837 GR
Neratinib/HKI272 [8]; 3.162 µM
  GR value: 0.455 GR
[9]; 0.0001 µM
  GR value: 0.942 GR
[9]; 0.0003162 µM
  GR value: 1.05 GR
[9]; 0.001 µM
  GR value: 1.01 GR
[9]; 0.003162 µM
  GR value: 1 GR
[9]; 0.01 µM
  GR value: 0.725 GR
[9]; 0.03162 µM
  GR value: -0.0614 GR
[9]; 0.1 µM
  GR value: -0.386 GR
[9]; 0.3162 µM
  GR value: -0.417 GR
[9]; 1 µM
  GR value: -0.494 GR
LEE011/Ribociclib [10]; 0.001 µM
  GR value: 0.721 GR
LEE011/Ribociclib [10]; 0.003162 µM
  GR value: 0.549 GR
LEE011/Ribociclib [10]; 0.01 µM
  GR value: 0.365 GR
LEE011/Ribociclib [10]; 0.03162 µM
  GR value: 0.492 GR
LEE011/Ribociclib [10]; 0.1 µM
  GR value: 0.285 GR
LEE011/Ribociclib [10]; 0.3162 µM
  GR value: 0.207 GR
LEE011/Ribociclib [10]; 1 µM
  GR value: 0.21 GR
LEE011/Ribociclib [10]; 3.162 µM
  GR value: 0.141 GR
LEE011/Ribociclib [10]; 10 µM
  GR value: 0.159 GR
